Measurements taken from the NIST ThermoML archive (doi:10.1021/je900307z).
Numbers after ± are expanded uncertainties.

Tests used:
[1] = refractive index (Na D-line) (dimensionless); settings: 101.33 kPa, Liquid, Standard Abbe refractometry
[2] = 101.33 kPa, Liquid; for viscosity: Capillary tube (Ostwald / Ubbelohde) method; for mass density: Vibrating tube method
[3] = molar heat capacity at constant pressure; settings: 101.33 kPa, Liquid, Small sample (50 mg) DSC

| refractive index ([1]; 293.15 K) | refractive index ([1]; 313.15 K) | viscosity ([2]; 293.15 K) | mass density ([2]; 293.15 K) | viscosity ([2]; 313.15 K) | mass density ([2]; 313.15 K) | molar heat capacity at constant pressure ([3]; 288.15 K) | molar heat capacity at constant pressure ([3]; 293.15 K) | molar heat capacity at constant pressure ([3]; 298.15 K) | molar heat capacity at constant pressure ([3]; 303.15 K) | molar heat capacity at constant pressure ([3]; 308.15 K) | molar heat capacity at constant pressure ([3]; 313.15 K) | molar heat capacity at constant pressure ([3]; 318.15 K) | molar heat capacity at constant pressure ([3]; 323.15 K) | SMILES |
| --- | --- | --- | --- | --- | --- | --- | --- | --- | --- | --- | --- | --- | --- | --- |
| 1.4223 ± 0.0006 | 1.4149 ± 0.0006 | 2.778 ± 0.022 mPa·s | 1204.66 ± 0.18 kg/m3 | 1.909 ± 0.017 mPa·s | 1183.06 ± 0.17 kg/m3 | 166.28 ± 3.3 J/K/mol | 167.97 ± 3.4 J/K/mol | 169.48 ± 3.4 J/K/mol | 170.79 ± 3.4 J/K/mol | 172.22 ± 3.4 J/K/mol | 174.14 ± 3.5 J/K/mol | 175.87 ± 3.5 J/K/mol | 177.45 ± 3.5 J/K/mol | CC1COC(=O)O1 (configuration not stated) [4-methyl-1,3-dioxolan-2-one] |
| 1.3858 ± 0.0007 | 1.3764 ± 0.0007 | 0.817 ± 0.008 mPa·s | 975.84 ± 0.3 kg/m3 | 0.623 ± 0.007 mPa·s | 952.39 ± 0.3 kg/m3 | 210.2 ± 4.2 J/K/mol | 211.49 ± 4.2 J/K/mol | 212.46 ± 4.2 J/K/mol | 213.83 ± 4.3 J/K/mol | 214.89 ± 4.3 J/K/mol | 215.8 ± 4.3 J/K/mol | 218.55 ± 4.4 J/K/mol | 220.32 ± 4.4 J/K/mol | CCOC(=O)OCC [diethyl carbonate] |
| 1.3689 ± 0.0006 | 1.3604 ± 0.0006 | 0.629 ± 0.006 mPa·s | 1069.8 ± 0.37 kg/m3 | 0.494 ± 0.005 mPa·s | 1043.25 ± 0.35 kg/m3 | 165.51 ± 3.3 J/K/mol | 166.07 ± 3.3 J/K/mol | 167.1 ± 3.3 J/K/mol | 168.48 ± 3.4 J/K/mol | 169.72 ± 3.4 J/K/mol | 170.83 ± 3.4 J/K/mol | 172.18 ± 3.4 J/K/mol | 173.68 ± 3.5 J/K/mol | COC(=O)OC [dimethyl carbonate] |
